Experimental data as given in patent publication US11753410B2, “Hormone receptor modulators for treating metabolic mutagenic and fibrotic conditions and disorders” (priority 2017, dated 2023).

What was measured:
[1] = target: T1, ligand binding domain of human FXR (Homo sapiens, UniProt Q96RI1); assay: biochemical; conditions: for Emax: extent of activation relative to GW4064, read-out: Ligand Binding % Efficacy; for EC50: −log EC50, concentration required to produce 50% activation, FRET 520 nm/495 nm, 1 hour at room temperature, read-out: Ligand Binding pEC50 (converted)
T1 construct: purchased Thermofisher (LanthaScreen) PV4833
T1 sequence (Q96RI1 262-486 limits assumed): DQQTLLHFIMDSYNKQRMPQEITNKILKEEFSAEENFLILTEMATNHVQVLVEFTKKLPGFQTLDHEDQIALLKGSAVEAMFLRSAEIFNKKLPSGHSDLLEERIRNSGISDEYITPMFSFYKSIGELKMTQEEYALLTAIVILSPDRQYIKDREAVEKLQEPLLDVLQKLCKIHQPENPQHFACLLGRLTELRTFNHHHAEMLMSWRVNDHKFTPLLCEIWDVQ
Method: The affinity of FXR ligands for the ligand binding domain of FXR was determined using a commercially available human FXR ligand binding assay (LanthaScreen, Thermofisher Cat #PV4833). […] Binding of FXR ligands to the FXR ligand binding domain promotes binding of the fluorescein-labelled SRC2-2 peptide. This causes a FRET signal between the terbium-labelled anti-GST antibody and the fluorescein-labelled SRC peptide which are both bound to the FXR ligand binding domain.
Test compounds are dissolved in DMSO and a 3-fold serial dilution series is generated, then further diluted into assay buffer. The compounds are mixed with 5 nM GST-tagged FXR ligand binding domain, 5 nM Tb-labelled anti-GST antibody and 500 nM fluorescein-labelled SRC2-2 peptide in a pH7.4 buffer. The reaction is incubated at room temperature for 1 hour, then the FRET signal is measured as the ratio of the 520 nm/495 nm emission following excitation at 340 nm. The change in FRET signal is plotted against the test article concentration and fit to a 3-parameter logistical equation.

[2] = target: T2, human Farnesoid X receptor ligand-binding domain/Gal4 DNA binding domain chimera (Homo sapiens, UniProt Q96RI1); assay: Cell-based assay of FXR activation (FXR-UAS-bla HEK 293T beta-lactamase reporter); conditions: for Emax: HEK-293T, read-out: Cellular % Efficacy
T2 construct: host or cells: FXR-UAS-bla HEK 293T (CellSensor UAS-bla HEK 293T)
T2 sequence (Q96RI1 262-486 limits assumed): T1 sequence (Q96RI1 262-486 limits assumed)
Method: FXR activation was measured using a cell line and procedure obtained from Life Technologies (Cat #K1691). […] Activation of FXR by bound ligands results in transcriptional activation of the beta-lactamase reporter gene, which is detected via assay of beta-lactamase activity.
Cells are harvested and diluted into assay medium containing phenol red-free DMEM supplemented with 2% Charcoal-stripped FBS, pyruvate, non-essential amino acids. Cells are then transferred to a 384 well assay plate. Test compounds are dissolved in DMSO and a 3-fold serial dilution series is generated, then further diluted into assay medium. Compounds in assay medium are added to cells in the 384 well plate and allowed to incubate 16 h at 37 C in the presence of 5% CO2.
A FRET-based […] (CCF4) is loaded into cells as its acetomethoxy ester. Intracellular esterases liberate free CCF4, a cephalosporin core linking 7-hydroxycoumarin to fluorescein. In the presence of beta-lactamase activity produced in the presence of FXR agonists, cleavage of CCF4 spatially separates the two dyes and disrupts FRET, so that exciting the coumarin at 409 nm now produces a blue fluorescence signal at 447 nm. The change in FRET signal is plotted against the test compound concentration and fit to a 3-parameter logistical equation.

SMILES	Emax [1]	EC50 [1]	EC50 [2]	Emax [2]
O=C(O)c1cc([C@@H]2CCOC2)c2nc(N3C[C@@H]4C[C@H]3C[C@H]4OCc3c(-c4c(Cl)cccc4Cl)cnn3C3CC3)sc2c1 (single isomer, unassigned) [Compound I-50]	78%	100 nM	100 nM	100%
O=C(O)c1cc([C@H]2CCOC2)c2nc(N3C[C@@H]4C[C@H]3C[C@H]4OCc3c(-c4c(Cl)cccc4Cl)cnn3C3CC3)sc2c1 (single isomer, unassigned) [Compound I-51]	96%	251 nM	158 nM	100%
O=C(O)c1cc([C@H]2CCOC2)c2nc(N3C[C@@H]4C[C@H]3C[C@H]4OCc3c(C4CC4)nnn3-c3c(Cl)cccc3Cl)sc2c1 (single isomer, unassigned) [Compound I-58]	145%	2 nM	1 nM	102%
O=C(O)c1cc([C@@H]2CCOC2)c2nc(N3C[C@@H]4C[C@H]3C[C@H]4OCc3c(C4CC4)nnn3-c3c(Cl)cccc3Cl)sc2c1 (single isomer, unassigned) [Compound I-59]	137%	1.58 nM	2.51 nM	100%
O=C(O)c1cc([C@H]2CCOC2)c2nc(N3C[C@@H]4C[C@H]3C[C@H]4OCc3c(-c4c(Cl)cccc4Cl)nnn3C3CC3)sc2c1 (single isomer, unassigned) [Compound I-65]	136%	25.1 nM	10 nM	108%
O=C(O)c1cc([C@@H]2CCOC2)c2nc(N3C[C@@H]4C[C@H]3C[C@H]4OCc3c(-c4c(Cl)cccc4Cl)nnn3C3CC3)sc2c1 (single isomer, unassigned) [Compound I-66]	140%	15.8 nM	15.8 nM	110%
O=C(O)c1ccc(N2C[C@@H]3C[C@H]2C[C@H]3OCc2c(C3CC3)cnn2-c2c(Cl)cccc2Cl)cc1 [Compound I-1, 4-[(1S,4S,5R)-5-{[4-cyclopropyl-1-(2,6-dichlorophenyl)-1H-pyrazol-5-yl]methoxy}-2-azabicyclo[2.2.1]heptan-2-yl]benzoic acid]	121%	6.31 nM	1.58 nM	110%
O=C(O)c1ccc(N2C[C@@H]3C[C@H]2C[C@H]3OCc2c(C3CC3)cnn2-c2c(Cl)cccc2Cl)cc1F [Compound I-2, 4-[(1S,4S,5R)-5-{[4-cyclopropyl-1-(2,6-dichlorophenyl)-1H-pyrazol-5-yl]methoxy}-2-azabicyclo[2.2.1]heptan-2-yl]-2-fluorobenzoic acid]	133%	5.01 nM	2 nM	104%
O=C(O)c1ccc(N2C[C@@H]3C[C@H]2C[C@H]3OCc2c(C3CC3)cnn2-c2c(F)cccc2F)cc1F [Compound I-10, 4-[(1S,4S,5R)-5-{[4-cyclopropyl-1-(2,6-difluorophenyl)-1H-pyrazol-5-yl]methoxy}-2-azabicyclo[2.2.1]heptan-2-yl]-2-fluorobenzoic acid]	164%	158 nM	31.6 nM	118%
O=C(NS(=O)(=O)C1CCOCC1)c1ccc(N2C[C@@H]3C[C@H]2C[C@H]3OCc2c(C3CC3)cnn2-c2c(Cl)cccc2Cl)cc1 [Compound I-20, 4-[(1S,4S,5R)-5-{[4-cyclopropyl-1-(2,6-dichlorophenyl)-1H-pyrazol-5-yl]methoxy}-2-azabicyclo[2.2.1]heptan-2-yl]-N-(oxane-4-sulfonyl)benzamide]	147%	3.16 nM	0.794 nM	102%
O=C(NS(=O)(=O)C1CCOC1)c1ccc(N2C[C@@H]3C[C@H]2C[C@H]3OCc2c(C3CC3)cnn2-c2c(Cl)cccc2Cl)cc1 (stereo partly drawn) [Compound I-23, 4-((1S,4S,5R)-5-((4-cyclopropyl-1-(2,6-dichlorophenyl)-1H-pyrazol-5-yl)methoxy)-2-azabicyclo[2.2.1]heptan-2-yl)-N-((tetrahydrofuran-3-yl)sulfonyl)benzamide]	164%	3.98 nM	2.51 nM	111%
O=C(NS(=O)(=O)CC1CCOC1)c1ccc(N2C[C@@H]3C[C@H]2C[C@H]3OCc2c(C3CC3)cnn2-c2c(Cl)cccc2Cl)cc1 (stereo partly drawn) [Compound I-24, 4-((1S,4S,5R)-5-((4-cyclopropyl-1-(2,6-dichlorophenyl)-1H-pyrazol-5-yl)methoxy)-2-azabicyclo[2.2.1]heptan-2-yl)-N-(((tetrahydrofuran-3-yl)methyl)sulfonyl)benzamide]	164%	3.16 nM	2.51 nM	107%
O=C(O)c1cc(F)c2nc(N3C[C@@H]4C[C@H]3C[C@H]4OCc3c(C4CC4)cnn3-c3c(Cl)cccc3Cl)sc2c1 [Compound I-30, 2-[(1S,4S,5R)-5-{[4-cyclopropyl-1-(2,6-dichlorophenyl)-1H-pyrazol-5-yl]methoxy}-2-azabicyclo[2.2.1]heptan-2-yl]-4-fluoro-1,3-benzothiazole-6-carboxylic acid]	151%	15.8 nM	1.58 nM	106%
O=C(O)c1cc(OC2CC2)c2nc(N3C[C@@H]4C[C@H]3C[C@H]4OCc3c(C4CC4)cnn3-c3c(Cl)cccc3Cl)sc2c1 [Compound I-31, 4-cyclopropoxy-2-[(1S,4S,5R)-5-{[4-cyclopropyl-1-(2,6-dichlorophenyl)-1H-pyrazol-5-yl]methoxy}-2-azabicyclo[2.2.1]heptan-2-yl]-1,3-benzothiazole-6-carboxylic acid]	116%	1.58 nM	0.2 nM	110%
O=C(O)c1cc(C2CCOCC2)c2nc(N3C[C@@H]4C[C@H]3C[C@H]4OCc3c(C4CC4)cnn3-c3c(Cl)cccc3Cl)sc2c1 [Compound I-32, 2-[(1S,4S,5R)-5-{[4-cyclopropyl-1-(2,6-dichlorophenyl)-1H-pyrazol-5-yl]methoxy}-2-azabicyclo[2.2.1]heptan-2-yl]-4-(oxan-4-yl)-1,3-benzothiazole-6-carboxylic acid]	128%	2.51 nM	1 nM	101%
O=C(O)CCc1ccc(N2C[C@@H]3C[C@H]2C[C@H]3OCc2c(C3CC3)cnn2-c2c(Cl)cccc2Cl)c(F)c1 [Compound I-33, 3-{4-[(1S,4S,5R)-5-{[4-cyclopropyl-1-(2,6-dichlorophenyl)-1H-pyrazol-5-yl]methoxy}-2-azabicyclo[2.2.1]heptan-2-yl]-3-fluorophenyl}propanoic acid]	132%	39.8 nM	3.98 nM	99%
O=C(O)CCc1ccc(N2C[C@@H]3C[C@H]2C[C@H]3OCc2c(C3CC3)cnn2-c2c(Cl)cccc2Cl)cc1F [Compound I-34, 3-{4-[(1S,4S,5R)-5-{[4-cyclopropyl-1-(2,6-dichlorophenyl)-1H-pyrazol-5-yl]methoxy}-2-azabicyclo[2.2.1]heptan-2-yl]-2-fluorophenyl}propanoic acid]	144%	100 nM	10 nM	98%
O=C(O)c1ccc(N2C[C@@H]3C[C@H]2C[C@H]3OCc2c(-c3c(Cl)cccc3Cl)cnn2C2CC2)cc1 [Compound I-41, 4-[(1S,4S,5R)-5-{[1-cyclopropyl-4-(2,6-dichlorophenyl)-1H-pyrazol-5-yl]methoxy}-2-azabicyclo[2.2.1]heptan-2-yl]benzoic acid]	96%	316 nM	794 nM	117%
O=C(O)c1ccc(N2C[C@@H]3C[C@H]2C[C@H]3OCc2c(-c3c(Cl)cccc3Cl)cnn2C2CC2)cc1F [Compound I-42, 4-[(1S,4S,5R)-5-{[1-cyclopropyl-4-(2,6-dichlorophenyl)-1H-pyrazol-5-yl]methoxy}-2-azabicyclo[2.2.1]heptan-2-yl]-2-fluorobenzoic acid]	102%	251 nM	398 nM	110%
